Source: US6642225B2, “Diazacycloalkanedione derivatives” (Novartis AG, priority 2000, dated 2003)

Legend:
[1] = tested on: carrageenan paw swelling; experiment: Rat carrageenan edema model; assay type: in vivo, OFA rats; conditions: about 0.3 to 30 mg/kg p.o.
Protocol: iii) Rat Carrageenan Edema Model Male OFA rats are treated orally with the compound to be tested or vehicle (saline). One to three hours later (0 hours) the rats receive a 100 μl intra-plantar injection of a 1% w/v carrageenan solution in 0.9% saline in the hind paw and the diameter of the paw is measured by means of a micro-calliper. The paw diameter measurements are repeated at times +3 and +5 hours after injection of the carrageenan.

[2] = biological target: T1, human LFA-1 (Homo sapiens, UniProt P20701); experiment: Cell free assay: binding of soluble human ICAM-1 to immobilized human LFA-1
T1 construct: endogenous in cells; host or cells: JY cells (human lymphoblastoid B cell line)
T1 sequence (P20701 26-1170): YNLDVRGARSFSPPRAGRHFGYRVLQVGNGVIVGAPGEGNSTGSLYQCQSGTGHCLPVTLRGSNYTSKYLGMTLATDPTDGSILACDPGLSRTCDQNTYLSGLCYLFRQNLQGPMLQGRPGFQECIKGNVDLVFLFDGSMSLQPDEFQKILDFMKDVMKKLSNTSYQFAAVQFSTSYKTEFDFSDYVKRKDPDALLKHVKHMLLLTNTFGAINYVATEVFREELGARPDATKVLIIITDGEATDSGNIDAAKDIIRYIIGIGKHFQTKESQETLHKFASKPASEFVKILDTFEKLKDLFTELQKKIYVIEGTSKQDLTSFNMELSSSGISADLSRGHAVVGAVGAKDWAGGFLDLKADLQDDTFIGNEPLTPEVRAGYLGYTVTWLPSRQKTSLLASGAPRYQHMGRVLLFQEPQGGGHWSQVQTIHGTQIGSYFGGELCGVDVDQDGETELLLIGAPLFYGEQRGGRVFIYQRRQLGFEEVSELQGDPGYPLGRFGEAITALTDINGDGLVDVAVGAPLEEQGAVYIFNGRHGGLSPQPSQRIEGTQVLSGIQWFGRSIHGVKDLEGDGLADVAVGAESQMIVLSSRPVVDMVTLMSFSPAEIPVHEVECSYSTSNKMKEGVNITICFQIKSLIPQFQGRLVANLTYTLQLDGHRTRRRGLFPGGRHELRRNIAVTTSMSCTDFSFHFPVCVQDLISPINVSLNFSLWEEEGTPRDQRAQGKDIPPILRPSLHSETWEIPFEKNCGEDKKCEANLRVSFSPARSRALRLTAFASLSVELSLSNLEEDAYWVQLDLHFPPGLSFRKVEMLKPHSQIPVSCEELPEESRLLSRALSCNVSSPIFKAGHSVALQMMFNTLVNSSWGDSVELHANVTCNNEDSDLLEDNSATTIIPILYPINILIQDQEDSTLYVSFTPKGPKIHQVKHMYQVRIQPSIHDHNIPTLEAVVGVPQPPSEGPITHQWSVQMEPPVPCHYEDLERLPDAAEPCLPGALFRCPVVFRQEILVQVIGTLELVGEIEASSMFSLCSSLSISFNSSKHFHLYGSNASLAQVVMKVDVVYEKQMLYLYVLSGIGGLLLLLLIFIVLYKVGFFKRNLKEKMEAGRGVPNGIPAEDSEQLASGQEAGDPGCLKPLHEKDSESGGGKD
T1 sequence (P05107 23-769 partner): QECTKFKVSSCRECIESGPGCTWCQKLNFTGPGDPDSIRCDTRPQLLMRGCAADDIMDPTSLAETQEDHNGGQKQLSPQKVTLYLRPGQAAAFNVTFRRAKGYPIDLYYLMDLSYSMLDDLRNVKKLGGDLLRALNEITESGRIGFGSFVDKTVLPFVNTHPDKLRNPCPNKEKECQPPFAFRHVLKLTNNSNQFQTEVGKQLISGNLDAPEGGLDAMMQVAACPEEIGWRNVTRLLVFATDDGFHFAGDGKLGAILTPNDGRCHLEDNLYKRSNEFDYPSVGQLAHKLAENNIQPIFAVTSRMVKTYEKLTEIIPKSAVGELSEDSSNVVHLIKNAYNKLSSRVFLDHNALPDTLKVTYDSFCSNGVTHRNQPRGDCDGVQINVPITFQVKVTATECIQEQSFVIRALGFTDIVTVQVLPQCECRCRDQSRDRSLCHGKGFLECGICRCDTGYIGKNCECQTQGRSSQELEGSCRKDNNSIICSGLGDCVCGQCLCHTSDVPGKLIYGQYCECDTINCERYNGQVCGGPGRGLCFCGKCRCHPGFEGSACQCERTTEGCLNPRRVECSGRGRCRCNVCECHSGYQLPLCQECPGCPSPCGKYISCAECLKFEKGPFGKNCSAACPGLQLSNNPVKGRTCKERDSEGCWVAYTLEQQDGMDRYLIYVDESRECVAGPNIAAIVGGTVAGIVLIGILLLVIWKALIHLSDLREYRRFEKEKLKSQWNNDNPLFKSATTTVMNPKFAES
Protocol: A. In Vitro: Cell Free Assay
The assay measures the binding of soluble human ICAM-1 to immobilized human LFA-1. LFA-1 is purified from JY cells, a human lymphoblastoid B cell-line, by immunoaffinity chromatography as described by Dustin et al. (J. Immunol. 148, 2654-2663, 1992). ICAM-1 mouse Cκ fusion protein (ICAM-1) is produced using the baculovirus system as described by Weitz-Schmidt et al. (Anal. Biochem.238, 184-190, 1996).
Purified LFA-1 is diluted 1:20 in phosphate buffered saline (PBS) containing 2 mM MgCl2, pH 7.4 and coated onto microtitre plates (Nunc) at 37° C. for 3 h. Plates are blocked with 1% heat-treated BSA in PBS for 2 hours at 37° C. followed by a washing step using PBS, 2 mM MgCl2, 1% fetal calf serum, pH 7.4 (assay buffer). Compounds dissolved at 10 mM in DMSO are diluted in assay buffer and added to the plates. Biotinylated recombinant ICAM-1 in assay buffer (6 μg/ml) is added and allowed to bind at 37° C. for one hour. After incubation, wells are washed with assay buffer. Streptavidin-peroxidase diluted 1:5000 in assay buffer is added and incubated for 45 min at 37° C. Plates are then washed with assay buffer and 2,2′-azino-bis(3-ethylbenzothiazoline-6 sulfonic acid) diammonium salt substrate solution is added to each well. The reaction is stopped after 20 min and bound ICAM-1 is determined by measuring the optical density at 405 nm in a microplate reader.

[3] = tested on: mBSA antigen-induced arthritis; experiment: Mouse antigen-induced arthritis model; assay type: in vivo, OFA-1 mice; conditions: about 0.3 to 30 mg/kg p.o.
Protocol: iv) Mouse Antigen-induced Arthritis Model The test for rheumatoid arthritis is carried out by a modification of that described by Van de Loo et al., Arthritis Rheum. 1995; 35:164-172, e.g., as follows: Female OFA-1 mice are sensitised intradermally on the back at two sites to methylated bovine serum albumin (mBSA) homogenised 1:1 with complete Freund's adjuvant on days −21 and −14 (0.1 ml containing 1 mg/ml mBSA). On day 0, the right knee receives 10 μl of 10 mg/ml mBSA in 5% glucose solution (antigen injected knee), while the left knee receives 10 μl of 5% glucose solution alone (vehicle injected knee). The diameters of the left and right knees are then measured using calipers immediately after the intra-articular injections and again on days 2, 4, 7, 9, 11 and 14. […] Right knee swelling is calculated as a ratio of left knee swelling, and the R/L knee swelling ratio plotted against time to give Area Under the Curve (AUC) graphs for control and treatment groups. The percentage inhibition of the individual treatment group AUCs are calculated vs the control group AUC (0% inhibition) using an Excel spreadsheet. […] After staining, the slides are number coded as left knee/right knee pairs from each animal and scored in a blinded fashion for inflammatory cell infiltrate/hyperplasia, joint damage/erosions and cartilage proteoglycan loss.

IC50 [2]: ~30 nM
SMILES: CNC(=O)[C@H](Cc1ccc2ccccc2c1)N1CCC(=O)N(Cc2cnc3ccccc3c2)[C@@H](CC(C)C)C1=O [Example 1, 1H-1,4-Diazepine-1-acetamide, hexahydro-N-methyl-3-(2-methylpropyl)-α-[(2-naphthalenyl)methyl]-2,5-dioxo-4-[(3-quinolinyl)methyl]-, (αS,3S)-]
inhibition of paw swelling [1]: inhibits paw swelling | inhibition of knee swelling [3]: inhibits knee swelling | histological damage to the knee ([3]; day 14 histology): significantly reduces the histological damage to the knee
